Consider 22 compounds from patent US20240124444A1 (Celgene Corporation, priority 2020, published 2024).

For this experiment, the system named is C. parvum strain UGA1. The experiment is described as follows: C. parvum growth inhibition assay (Nluc luminescence in HCT-8 cells). It is filed as cell-based, Cryptosporidium parvum. To be noted: Cryptosporidium parvum; for inhibition at 1 µM / inhibition at 10 µM: HCT-8; for inhibition at 1 µM: read-out: % inh @ 1 uM C. parvum; for inhibition at 10 µM: read-out: % inh @ 10 uM C. parvum; for EC50: HCT-8, 48 h, C. parvum growth inhibition in HCT-8 cells, 48 hours, 6 concentrations 10-0.04 μM.

[1] abbreviates: single point inhibition @ 10 uM.
[2] abbreviates: single point inhibition at 1 uM.
[3] abbreviates: single point inhibition at 10 uM.

Like-named read-outs stand apart in the source and are kept apart here.

Take `CN(CC(F)(F)F)c1cc(-c2cc3cnc(NC4CCOCC4)cc3[nH]2)ncn1` [Example 44, 2-(6-(Methyl(2,2,2-trifluoroethyl)amino)pyrimidin-4-yl)-N-(tetrahydro-2H-pyran-4-yl)-1H-pyrrolo[3,2-c]pyridin-6-amine]: the inhibition at 1 µM (single point inhibition @ 1 uM) lay within 0 to 33%. The inhibition at 10 µM under setting [1] fell in the range of 67 to 100%.
Turning to `O=C(Nc1cc2[nH]c(-c3ccnc(OCCC(F)(F)F)n3)cc2cn1)c1cnn([C@H]2CC[C@H](O)CC2)c1` [Example 216, 1-((1r,4r)-4-hydroxycyclohexyl)-N-(2-(2-(3,3,3-trifluoropropoxy)pyrimidin-4-yl)-1H-pyrrolo[3,2-c]pyridin-6-yl)-1H-pyrazole-4-carboxamide], under setting [2], the inhibition at 1 µM was in the range of 0 to 33%. Further, under setting [3], the inhibition at 10 µM lay in the range of 67 to 100%.
Turning to `Cc1cc(Nc2cc3[nH]c(-c4ccnc(C#N)c4)cc3cn2)cc(-n2cncn2)c1` [Example 339, 4-(6-(3-methyl-5-(1H-1,2,4-triazol-1-yl)phenylamino)-1H-pyrrolo[3,2-c]pyridin-2-yl)picolinonitrile], the inhibition at 1 µM under setting [2] fell in the range of 0 to 33%. Besides, the inhibition at 10 µM under setting [3] was 0 to 33%.
With `CC(C)n1cc(C(=O)Nc2cc3c(cn2)cc(-c2ccnc(NCCC(F)(F)F)n2)n3C)cn1` [Example 178, 1-isopropyl-N-(1-methyl-2-(2-(3,3,3-trifluoropropylamino)pyrimidin-4-yl)-1H-pyrrolo[3,2-c]pyridin-6-yl)-1H-pyrazole-4-carboxamide], the inhibition at 1 µM (single point inhibition @ 1 uM) was in the range of 0 to 33%. For the same compound, the inhibition at 10 µM under setting [1] was 67 to 100%.
`FC(F)(F)c1c[nH]c2cc(NC3CCOCC3)ncc12` [Example 376, N-(tetrahydro-2H-pyran-4-yl)-3-(trifluoromethyl)-1H-pyrrolo[3,2-c]pyridin-6-amine] gave an EC50 of more than 1 µM.
On to `COc1nccc(-c2cc3cnc(NC(=O)c4cnn(CC5CCOC5)c4C)cc3[nH]2)n1` (stereo in doubt) [Example 179, (S)-N-(2-(2-methoxypyrimidin-4-yl)-1H-pyrrolo[3,2-c]pyridin-6-yl)-5-methyl-1-((tetrahydrofuran-3-yl)methyl)-1H-pyrazole-4-carboxamide], for which the inhibition at 1 µM (single point inhibition @ 1 uM) is 0 to 33%. For the same compound, under setting [1], the inhibition at 10 µM was in the range of 67 to 100%.
Consider `Cc1cc(-c2cc3cnc(NC4CCOCC4)cc3[nH]2)nc(C)n1` [Example 393, 2-(2,6-dimethylpyrimidin-4-yl)-N-(tetrahydro-2H-pyran-4-yl)-1H-pyrrolo[3,2-c]pyridin-6-amine], for which the EC50 was more than 1 µM.
For `Cc1cc(-c2cc3cnc(NC(=O)C4CC(C)(O)C4)cc3[nH]2)ccn1` (centres unmarked) [Example 202, 3-hydroxy-3-methyl-N-(2-(2-methylpyridin-4-yl)-1H-pyrrolo[3,2-c]pyridin-6-yl)cyclobutanecarboxamide], the inhibition at 1 µM under setting [2] was 0 to 33%. Further, the inhibition at 10 µM under setting [3] fell in the range of 67 to 100%.
Regarding `CC(C)n1cc(C(=O)Nc2cc3[nH]c(-c4ccnc(OC(C)C(F)(F)F)n4)cc3cn2)cn1` (centres unmarked) [Example 149, 1-isopropyl-N-(2-(2-(1,1,1-trifluoropropan-2-yloxy)pyrimidin-4-yl)-1H-pyrrolo[3,2-c]pyridin-6-yl)-1H-pyrazole-4-carboxamide], under “single point inhibition @ 1 uM”, the inhibition at 1 µM is 0 to 33%. Moreover, the inhibition at 10 µM under setting [1] was in the range of 67 to 100%.
For `CC(C)n1cc(C(=O)Nc2cc3[nH]c(-c4ccnc(OCC(F)(F)F)n4)cc3cn2)cn1` [Example 186, 1-isopropyl-N-(2-(2-(2,2,2-trifluoroethoxy)pyrimidin-4-yl)-1H-pyrrolo[3,2-c]pyridin-6-yl)-1H-pyrazole-4-carboxamide], in that order: 0 to 33% and 67 to 100%.
For `Cn1cc(C(=O)Nc2cc3[nH]c(C4CC4)cc3cn2)cn1` [Example 88, N-(2-cyclopropyl-1H-pyrrolo[3,2-c]pyridin-6-yl)-1-methyl-1H-pyrazole-4-carboxamide], the EC50 is more than 1 µM. The inhibition at 1 µM (single point inhibition @ 1 uM) lay in the range of 33 to 66%. In addition, the inhibition at 10 µM under setting [1] lay in the range of 0 to 33%.
`CN(CC(F)(F)F)c1cc(-c2cc3cnc(NC4CCOCC4)cc3[nH]2)ccn1` [Example 381, 2-(2-(methyl(2,2,2-trifluoroethyl)amino)pyridin-4-yl)-N-(tetrahydro-2H-pyran-4-yl)-1H-pyrrolo[3,2-c]pyridin-6-amine]: the concentration for a half-maximal effect (EC50) is more than 1 µM.
`O=C(Nc1cc2[nH]c(-c3cnc[nH]3)cc2cn1)C1CC1` [Example 330, N-(2-(1H-imidazol-5-yl)-1H-pyrrolo[3,2-c]pyridin-6-yl)cyclopropanecarboxamide]: the inhibition at 1 µM under setting [2] was in the range of 0 to 33%. Further, the inhibition at 10 µM under setting [3] is 0 to 33%.
As to `COc1cc(-c2cc3cnc(NC4CCOCC4)cc3n2C)ncn1` [Example 388, 2-(6-methoxypyrimidin-4-yl)-1-methyl-N-(tetrahydro-2H-pyran-4-yl)-1H-pyrrolo[3,2-c]pyridin-6-amine], the EC50 is more than 1 µM.
Turning to `CC(C)CC(=O)Nc1cc2[nH]c(-c3ccncc3)cc2cn1` [Example 134, 3-methyl-N-(2-(pyridin-4-yl)-1H-pyrrolo[3,2-c]pyridin-6-yl)butanamide], the inhibition at 1 µM (single point inhibition @ 1 uM) lay in the range of 0 to 33%. Moreover, the inhibition at 10 µM under setting [1] lay within 67 to 100%.
As to `Cc1cc(-c2cc3cnc(NC(=O)c4cnn(C5CCC5)c4)cc3[nH]2)ccn1` [Example 205, 1-cyclobutyl-N-(2-(2-methylpyridin-4-yl)-1H-pyrrolo[3,2-c]pyridin-6-yl)-1H-pyrazole-4-carboxamide], the inhibition at 1 µM under setting [2] lay within 0 to 33%. In addition, the inhibition at 10 µM under setting [3] was 67 to 100%.
As for `CCOc1nccc(-c2cc3cnc(NC(=O)c4cn(CC5CCCO5)nc4C)cc3[nH]2)n1` (stereo in doubt) [Example 322, (S)-N-(2-(2-ethoxypyrimidin-4-yl)-1H-pyrrolo[3,2-c]pyridin-6-yl)-3-methyl-1-((tetrahydrofuran-2-yl)methyl)-1H-pyrazole-4-carboxamide], under setting [2], the inhibition at 1 µM lay in the range of 0 to 33%. Also, the inhibition at 10 µM under setting [3] lay within 0 to 33%.
With `Cn1cc(C(=O)Nc2cc3c(cn2)cc(-c2ccnc(NCC4CC4)n2)n3C)cn1` [Example 159, N-(2-(2-(cyclopropylmethylamino)pyrimidin-4-yl)-1-methyl-1H-pyrrolo[3,2-c]pyridin-6-yl)-1-methyl-1H-pyrazole-4-carboxamide], for the setting “single point inhibition @ 1 uM”, the inhibition at 1 µM was 0 to 33%. The inhibition at 10 µM under setting [1] lay in the range of 67 to 100%.
Turning to `CC(=O)Nc1cc2[nH]c(-c3cccnc3)cc2cn1` [Example 198, N-(2-(pyridin-3-yl)-1H-pyrrolo[3,2-c]pyridin-6-yl)acetamide], the inhibition at 1 µM under setting [2] lay in the range of 0 to 33%. Moreover, the inhibition at 10 µM under setting [3] was in the range of 67 to 100%.
As for `COc1nccc(-c2cc3cnc(NC(=O)c4cccc5[nH]ncc45)cc3[nH]2)n1` [Example 269, N-(2-(2-methoxypyrimidin-4-yl)-1H-pyrrolo[3,2-c]pyridin-6-yl)-1H-indazole-4-carboxamide], under setting [2], the inhibition at 1 µM is 0 to 33%. Under setting [3], the inhibition at 10 µM fell in the range of 0 to 33%.
Consider `O[C@H]1CC[C@@H](Nc2cc3[nH]c(-c4cccnc4)cc3cn2)CC1` [Example 251, (1s,4s)-4-(2-(pyridin-3-yl)-1H-pyrrolo[3,2-c]pyridin-6-ylamino)cyclohexanol], for which, under setting [2], the inhibition at 1 µM is 0 to 33%. Further, the inhibition at 10 µM under setting [3] fell in the range of 0 to 33%.
Consider `O=C(Nc1cc2[nH]c(-c3ccnc(OCCF)n3)cc2cn1)c1cnn(C2CCOCC2)c1` [Example 225, N-(2-(2-(2-fluoroethoxy)pyrimidin-4-yl)-1H-pyrrolo[3,2-c]pyridin-6-yl)-1-(tetrahydro-2H-pyran-4-yl)-1H-pyrazole-4-carboxamide], for which the inhibition at 1 µM under setting [2] was in the range of 0 to 33%. The inhibition at 10 µM under setting [3] lay within 33 to 66%.

By EC50 is commonly meant the concentration needed to bring the measured effect to its halfway point. High values mean a less potent agent, low ones a more potent agent.
